According to PMC4105567, “Aurora Kinases as Druggable Targets in Pediatric Leukemia: Heterogeneity in Target Modulation Activities and Cytotoxicity by Diverse Novel Therapeutic Agents” (PLoS ONE, 2014):

Tests used:
SEM B-ALL cell line = experiment: Cytotoxicity assay, SEM; format: cell-based; conditions: Homo sapiens, 96 h, four days in culture, Alamar blue assay or automated microscopy, ± SD, three experiments
Procedure, shortened: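 Percent survival versus DMSO control after 4-day inhibitor exposure (1×10^−6 to 10 µM final), based on Alamar blue absorbance or automated microscopy cell counts.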

Aurora-A = tested on: Aurora-A; set-up: method as in earlier work; conditions: literature values; ref [10],[22],[27],[40],[44]–[64] as listed per inhibitor in Table 1; read-out: Targets (IC50 Value): Aurora-A; cited from earlier work
phospho-Aurora-A/B/C = experiment: Western blot of Aurora kinase phosphorylation in leukemia cell lines; format: cell-based, human
Description: (§1) Following desired experimental conditions, cells were harvested and centrifuged at 1200 rpm at 4°C for 5 minutes. After removal of supernatant, cells were washed in cold PBS. Following an additional centrifugation step, supernatant was removed and the pellet was re-suspended in radioimmunoprecipitation assay (RIPA) buffer (50 mM Tris-HCl (pH 8), 150 mM NaCl, 1% NP-40, 0.5% sodium deoxycholate; 0.1% sodium dodecyl sulphate (SDS)) supplemented with 1% phosphatase inhibitor (Sigma-Aldrich), 1% protease inhibitor (Sigma-Aldrich) and 1% sodium orthovanadate (Alfa Aesar, Ward Hill, Massachusetts). Samples were transferred to Eppendorf tubes, left on ice for 10 minutes, vortexed and then centrifuged at 14 000 rpm for 10 minutes.
To begin, the protein content of the lysates was measured using the Bicinchoninic Acid (BCA) Protein Assay Kit (Pierce, Rockford, Illinois), which included a protein standard curve generated with bovine serum albumin. Appropriate volumes of samples and loading buffer (50 mM Tris-HCl (pH 6.8), 2% SDS, 10% glycerol, 1% β-mercaptoethanol, 12.5 mM EDTA, 0.02% bromophenol blue) were mixed, ensuring that equal amounts of protein were loaded (30 µg of protein per well). Samples were then resolved on SDS-PAGE using various percentages of acrylamide gels (8%–12%), depending on the proteins of interest. SDS-PAGE was run in SDS running buffer (25 mM Tris, 192 mM glycine, 0.1% SDS) and then transferred to nitrocellulose membranes in transfer buffer (48 mM Tris, 39 mM glycine, 20% (v/v) methanol) at 100 volts for 2 hours at 4°C. Immunoblots were then blocked in 5% skim milk in tris-buffered saline with 0.1% Tween-20 (TBS-T; 50 mM Tris-HCl, pH 7.5, 150 mM NaCl, 0.1% (v/v) Tween-20 (Sigma-Aldrich)) for 1 to 2 hours. Immunoblots were then incubated with selected primary antibodies diluted in TBS-T with 0.1% gelatin (Bio-Rad, Mississauga, Ontario) and 0.05% sodium azide (Sigma-Aldrich) overnight. Primary antibodies included: Aurora-A (Cell Signalling, Danvers, Massachusetts; 1∶1000), Aurora-B (Cell Signalling, 1∶1000), phospho-Aurora-A/B/C (Cell Signalling, 1∶1000), caspase 7 (Cell Signalling, 1∶1000), PARP (Cell Signalling, 1∶2000) and β-Actin (Sigma-Aldrich, 1∶10000). Following washes with TBT-T 4 times for 8 to 10 minutes, immunoblots were incubated with appropriate secondary antibodies conjugated to horseradish peroxidise (Sigma-Aldrich) diluted in TBS-T plus 5% skim milk at a ratio of 1∶5000 for 2 hours at room temperature. After an additional round of washes in TBS-T, immunoblots were exposed to combined enhanced chemiluminescence (ECL) reagents (Reagent 1: 100 mM Tris-HCl (pH 8.5), 5.4 mM hydrogen peroxide; Reagent 2: 100 mM Tris-HCl (pH 8.5), 2.5 mM luminol, 0.4 mM p-coumaric acid) for 1 minute and developed by exposure to X-ray film (Christie InnoMed, Montreal, Quebec).
Leukemia cells were plated in a 6 well plate (BD Biosciences) at a concentration of 1×10^6 cells per well in a volume of 500 µl of Opti-MEM supplemented with FBS and antibiotics. Next, Silencer Select Negative Control Number 1 siRNA (Invitrogen), Aurora kinase A siRNA (s196, Invitrogen) and Aurora kinase B siRNA (s17611, Invitrogen) were diluted in individual tubes (BD Biosciences) to a final concentration of 30 nM in 500 µl Opti-MEM without supplements. Following, HiPerfect Transfection Reagent (Qiagen, Toronto, Ontario) was added to the diluted siRNA at a ratio of 3∶100 and the samples were left at room temperature for 10 minutes to allow for the formation of transfection complexes. The transfection complexes were then added to the cells at a volume of 500 µl per well and the plates were placed in the incubator for 6 hours. After incubation, 1.4 ml of Opti-MEM plus supplements were added to each well, for a total volume 2.4 ml per well. The cells were returned to the incubator for an additional 48 or 72 hours and then processed for immunoblotting.

[1] = tested on: cleavage of PARP and caspase 7; experiment: Western blot of apoptotic markers in leukemia cell lines; format: cell-based, human; conditions: 2, 4, 6, 12 and 24 hours, C1, SEM, KOPN8, TIB-202
Description: as §1
To begin, the protein content of the lysates was measured using the Bicinchoninic Acid (BCA) Protein Assay Kit (Pierce, Rockford, Illinois), which included a protein standard curve generated with bovine serum albumin. Appropriate volumes of samples and loading buffer (50 mM Tris-HCl (pH 6.8), 2% SDS, 10% glycerol, 1% β-mercaptoethanol, 12.5 mM EDTA, 0.02% bromophenol blue) were mixed, ensuring that equal amounts of protein were loaded (30 µg of protein per well). Samples were then resolved on SDS-PAGE using various percentages of acrylamide gels (8%–12%), depending on the proteins of interest. SDS-PAGE was run in SDS running buffer (25 mM Tris, 192 mM glycine, 0.1% SDS) and then transferred to nitrocellulose membranes in transfer buffer (48 mM Tris, 39 mM glycine, 20% (v/v) methanol) at 100 volts for 2 hours at 4°C. Immunoblots were then blocked in 5% skim milk in tris-buffered saline with 0.1% Tween-20 (TBS-T; 50 mM Tris-HCl, pH 7.5, 150 mM NaCl, 0.1% (v/v) Tween-20 (Sigma-Aldrich)) for 1 to 2 hours. Immunoblots were then incubated with selected primary antibodies diluted in TBS-T with 0.1% gelatin (Bio-Rad, Mississauga, Ontario) and 0.05% sodium azide (Sigma-Aldrich) overnight. […]

SMILES | IC50 (SEM B-ALL cell line) [nM] | IC50 (Aurora-A) [nM] | phosphorylation of Aurora kinases, inhibitor alone, TIB-202 (phospho-Aurora-A/B/C; 1 µM for 12 h, TIB-202, Lanes 3 and 6 of Figure 8) | phosphorylation of Aurora-A, time course, C1 (phospho-Aurora-A/B/C; 1 µM, 2, 4, 6, 12 and 24 hours, C1) | phosphorylation of Aurora-B and Aurora-C, time course (phospho-Aurora-A/B/C; 1 µM, 2, 4, 6, 12 and 24 hours, C1, SEM, KOPN8, TIB-202) | phosphorylation of Aurora-A, time course, SEM, KOPN8, TIB-202 (phospho-Aurora-A/B/C; 1 µM, 2, 4, 6, 12 and 24 hours, SEM, KOPN8, TIB-202) | phosphorylation of Aurora kinases, inhibitor after Aurora-B siRNA (phospho-Aurora-A/B/C; Aurora-B siRNA 60 hours, then 1 µM for 12 h, SEM and TIB-202, Lane 5) | cleavage of caspase 7, time course ([1]; 1 µM) | phosphorylation of Aurora-B, inhibitor alone (phospho-Aurora-A/B/C; 0.1 µM for 12 hours, SEM and TIB-202, Lanes 3 and 6 of Figure 7) | phosphorylation of Aurora-A, time course (phospho-Aurora-A/B/C; 0.1 µM, 2, 4, 6, 12 and 24 hours, C1, SEM, KOPN8, TIB-202) | phosphorylation of Aurora-B and Aurora-C, time course, C1 and TIB-202 (phospho-Aurora-A/B/C; 0.1 µM, 2, 4, 6, 12 and 24 hours, C1 and TIB-202) | phosphorylation of Aurora-B, time course, SEM and KOPN8 (phospho-Aurora-A/B/C; 0.1 µM, 2, 4, 6, 12 and 24 hours, SEM and KOPN8) | phosphorylation of Aurora-B and Aurora-C, inhibitor after Aurora-A siRNA (phospho-Aurora-A/B/C; Aurora-A siRNA 60 hours, then 0.1 µM for 12 hours, SEM and TIB-202, Lane 5) | cleavage of PARP, time course ([1]; 0.1 µM) | cleavage of caspase 7, time course ([1]; 0.1 µM)
O=C(Nc1c[nH]nc1-c1nc2ccc(CN3CCOCC3)cc2[nH]1)NC1CC1 [AT9283] | 40 ± 20 | – | – | – | – | – | – | – | – | – | – | – | – | – | –
CCN1CCN(C(=O)Cc2ccc(Nc3ncc(F)c(Nc4ccc(C(=O)Nc5ccccc5Cl)cc4)n3)cc2)CC1 [Aurora A Inhibitor I] | – | 3 | promoted dephosphorylation of Aurora-A and increased phosphorylation of Aurora-B and Aurora-C | slight increase in phosphorylation of Aurora-A at 12 and 24 hours | gradual increase in phosphorylation of Aurora-B and Aurora-C compared to vehicle control starting at 2 hours for SEM and KOPN8, 4 hours for TIB-202 and 6 hours for C1 | initial decrease, followed by a subsequent increase in phosphorylation of Aurora-A was apparent, starting at 6 hours for SEM and at 4 hours for KOPN8 and TIB-202 | decrease in phosphorylation of all three isoforms compared to treatment with Aurora A Inhibitor I alone or Aurora-B siRNA alone | cleavage of caspase 7 beginning at 4 hours for TIB-202 and at 12 hours for the remaining cell lines | – | – | – | – | – | – | –
CCS(=O)(=O)Nc1ccc2c(c1)/C(=C(/Nc1ccc(CN3CCCCC3)cc1)c1ccccc1)C(=O)N2 [Hesperadin] | 1 ± 0.5 | – | – | – | – | – | – | – | promoted dephosphorylation of Aurora-B | remained phosphorylated in all of the cell lines throughout the duration of treatment, with a slight increase in activity at 12 and 24 hours | Dephosphorylation of Aurora-B and Aurora-C was initiated at 2 hours in C1 and TIB-202 and maintained for the duration of the treatment | dephosphorylation of Aurora-B was initiated at 2 hours in SEM and KOPN8 and maintained until 24 hours | decrease in phosphorylation of Aurora-B and Aurora-C compared to silencing of Aurora-A alone | cleavage of PARP in all four cell lines starting at 12 hours | cleavage of caspase 7 beginning at 4 hours for C1 and at 12 hours for the remaining cell lines
